According to patent US12054503B2, “Amphiphilic material and application thereof in preparation for liposome” (ZHEJIANG UNIVERSITY, priority 2021, dated 2024):

Legend:
[1] = test system: orthotropic pancreatic tumor (BxPC3-Luci); assay: In vivo antitumor activity in orthotropic BxPC3 tumor-bearing mice
Method: The orthotropic pancreatic tumor was established by using the bioluminescent BxPC3 cells (BxPC3-Luci). Bioluminescence intensities in mice were measured using the in vivo imaging system of Caliper IVIS Lumina II (PerkinElmer, USA) to evaluate tumour growth. After inoculation with bioluminescent BxPC3 cells for 8 days, the mice were selected and grouped into five groups (n=5). SCGLN, SGLN, free GEM (all dose equivalent to GEM 20 mg/kg), SCLN and PBS were intravenous injected every two days for a total of five times, the tumor site was treated with ultrasound stimulation (intensity: 2 W/cm^2, 3 MHz, duty cycle: 50%, duration: 10 min, Mettler Sonicator-740) after injection. On the first administration (8th day), 12th, 16th, and 20th day, tumor progress was assessed and semi-quantitatively analyzed via bioluminescence after injection of 10 mg/mL D-luciferin in PBS (200 μL) by using the in vivo imaging system. Mice were sacrificed on the 20th day, and tumors were dissected and weighed. The tumor inhibition rate=100%×(mean tumor weight of PBS group−mean tumor weight of experimental group)/mean tumor weight of PBS group. The tumors were fixed with 4% neutral buffered paraformaldehyde and embedded in paraffin. Tissue sections of 5-μm thick were mounted onto glass slides and stained with hematoxylin-eosin (H&E) and examined by light microscopy (OLYMPUS, BX51, Japan). […]

U251 glioma = assay: In vivo antitumor activity in mice bearing U251 glioma subcutaneously
Method: In vivo antitumor activity of the liposomal nanometer particle was further tested in another low permeability tumor of U251 glioma. The mice were subcutaneously inoculated with 2×10^7 U251 cells on the right flank. Same as the experiment of pancreatic tumor treatment, mice were randomly grouped into five groups (n=5) on the 6th day after inoculation. SCGLN, SGLN, free GEM (all dose equivalent to GEM 20 mg/kg), SCLN and PBS were intravenous injected every two days for a total of five times, the tumor site was treated with ultrasound stimulation (intensity: 2 W/cm^2, 3 MHz, duty cycle: 50%, duration: 10 min, Mettler Sonicator-740) after injection, the first administration was on the 6th day. The width and length of the tumors and the bodyweight of mice were measured during the treatment. At the end of the experiment, the mice were euthanized, and tumors were dissected and weighed. The therapeutic efficacy of the treatments was evaluated by comparing the experimental group with the control group.

SMILES: Nc1ccn([C@@H]2O[C@H](CO)[C@@H](O)C2(F)F)c(=O)n1 [GEM, gemcitabine]
- Mean tumor inhibition rate ([1]; dose equivalent to GEM 20 mg/kg i.v. every two days, five times, ultrasound stimulation, tumor weight on 20th day): 66.7%
- Body weight decrease at the end of the experiment ([1]; end of the experiment): ~10 % of the initial weight
- Anti-tumor effect (tumor eradication ability) (U251 glioma; dose equivalent to GEM 20 mg/kg i.v. every two days, five times, ultrasound stimulation, end of the experiment): 68.8%
- Weight of mice during the treatment (U251 glioma; mouse, in vivo): gradually decreased
